Data reported in publication PMC9422153, “A novel antibiotic combination of linezolid and polymyxin B octapeptide PBOP against clinical Pseudomonas aeruginosa strains” (Annals of Clinical Microbiology and Antimicrobials, 2022).
Converted amounts (≈) assume the structure as drawn. Like-named read-outs stand apart in the source and are kept apart here. Bridge positions count the residues as written; N and C are the ends. Square brackets hold non-standard residues; d marks the D form. Peptide text beside a SMILES is read from it. Dab = NCC[C@H](N)C(=O)O

Key:
[1] = test system: P. aeruginosa ATCC27853; assay: MIC, micro-dilution method; assay type: cell-based; conditions: Pseudomonas aeruginosa
Method: (§1) The MICs (minimal inhibitory concentrations) were determined for different P. aeruginosa strains using micro-dilution method, with a concentration of 1 × 10^5 CFU/mL on LB broth for 24 h, according to the published procedures. The experiment was carried out in three repeats.

[2] = test system: P. aeruginosa PAB41; assay: MIC, micro-dilution method; assay type: cell-based; conditions: Pseudomonas aeruginosa
Method: as §1

[3] = test system: P. aeruginosa PA14; assay: MIC, micro-dilution method; assay type: cell-based; conditions: Pseudomonas aeruginosa
Method: as §1

[4] = test system: P. aeruginosa PA2; assay: MIC, micro-dilution method; assay type: cell-based; conditions: Pseudomonas aeruginosa
Method: as §1

[5] = test system: PA2; assay: Time-kill assay, bacterial burdens in vitro; assay type: cell-based, Pseudomonas aeruginosa; conditions: PA2, 1 × 10^5 CFU in 96-well plates; 1 h, 6 h, 12 h, 24 h; LP compared to single-treated groups
Method: (§2) To explore the antibacterial activity of LP combination in the P. aeruginosa in vitro, PA14 were cultured in 96-well plates and were treated with PBS, linezolid, PBOP or LP for 1 h, 6 h, 12 h, and 24 h.
(§3) A1–A4 1 × 10^5 CFU of PA14 were seeded in 96-well plates and treated with PBS, linezolid, PBOP or combination of linezolid and PBOP (LP) for 1 h (A1), 6 h (A2), 12 h (A3), and 24 h (A4). The bacteria burdens on the LB agar plates were counted. B1–B4 1 × 10^5 CFU of PA2 were seeded in 96-well plates and treated with PBS, linezolid, PBOP or LP for 1 h (B1), 6 h (B2), 12 h (B3), and 24 h (B4). C1–C4 1 × 10^5 CFU of PAB41 were seeded in 96-well plates and treated with PBS, linezolid, PBOP or LP for 1 h (C1), 6 h (C2), 12 h (C3), and 24 h (C4). The bacteria burdens were determined as described above.

[6] = test system: PAB41; assay: Time-kill assay, bacterial burdens in vitro; assay type: cell-based, Pseudomonas aeruginosa; conditions: PAB41, 1 × 10^5 CFU in 96-well plates; 1 h, 6 h, 12 h, 24 h; LP compared to single-treated groups
Method: as §2, §3

[7] = test system: C. elegans infected with PA14; assay: C. elegans infection model; assay type: in vivo, Caenorhabditis elegans; conditions: PA14 infection on SK plate, linezolid 8 μg/mL, PBOP 16 μg/mL
Method: To determine the protective effect of LP, all groups of C. elegans were infected with PA14 in slow killing (SK) agar plate and were treated with PBS, linezolid (8 μg/mL), PBOP (16 μg/mL) or LP. The mortality of the infected C. elegans was evaluated for 7 days. […] The bacterial loads inside the C. elegans were counted at 12 h or 24 h post-infection as previously described. Briefly, the infected nematodes were mixed with silicon carbide particles and vortexed at maximum speed for one minute. The resulting suspension was serially diluted and plated on a selective agar plate to determine the bacterial CFU. This experiment was performed in triplicate.

[8] = test system: all tested P. aeruginosa strains; assay type: cell-based, Pseudomonas aeruginosa; conditions: 24 h
Method: as §1

[9] = test system: P. aeruginosa PA14; assay type: cell-based, Pseudomonas aeruginosa
Method: Synergistic effect of the 6 polymyxin B or polymyxin E derivatives in combination with 5 conventional antibacterial agents was detected using the checkerboard method as described on the previous study. Briefly, the serial concentrations of test compounds were prepared by a two-dimensional array. The tested dilutions were based on the MICs of the two different compounds. The fractional inhibitory concentration index (FIC) was applied to illuminate the checkerboard test based on formulas as follows: FIC Index = […] = MICA+B/MICA, and FICB = MICB+A/MICB. The value of MICA+B is indicated as the MIC value of Compound A with Compound B, and equally for MICB+A. […] The experiments were repeated in triplicate.

[10] = P. aeruginosa ATCC27853, micro-dilution, 1 × 10^5 CFU/mL, LB broth, 24 h, three repeats, read-out: MIC
[11] = P. aeruginosa PAB41 (carbapenem-resistant clinical strain), micro-dilution, 1 × 10^5 CFU/mL, LB broth, 24 h, three repeats, read-out: MIC
[12] = P. aeruginosa PA14, micro-dilution, 1 × 10^5 CFU/mL, LB broth, 24 h, three repeats, read-out: MIC
[13] = P. aeruginosa PA2 (multidrug-resistant clinical strain), micro-dilution, 1 × 10^5 CFU/mL, LB broth, 24 h, three repeats, read-out: MIC

Row | Compound | MIC [1, 10] [µg/mL] | MIC [2, 11] [µg/mL] | MIC [3, 12] [µg/mL] | MIC [4, 13] [µg/mL] | MIC [8] | FIC (lowest FIC Index) combined with Erythromycin [9] | FIC (lowest FIC Index) combined with Lincomycin [9] | FIC (lowest FIC Index) combined with Linezolid [9] | FIC (lowest FIC Index) combined with Nisin [9] | FIC (lowest FIC Index) combined with Vancomycin [9] | other results
1 | CC1(C)S[C@@H]2[C@H](NC(=O)[C@H](N)c3ccccc3)C(=O)N2[C@H]1C(=O)O [Ampicillin, ampicillin] | 4 (≈ 11.4 µM) | 8 (≈ 22.9 µM) |  |  |  |  |  |  |  |  | 
2 | CN(C)[C@@H]1C(O)=C(C(N)=O)C(=O)[C@@]2(O)C(O)=C3C(=O)c4c(O)ccc(Cl)c4[C@@](C)(O)[C@H]3C[C@@H]12 [Chlortetracycline, chlortetracycline] | 4 (≈ 8.35 µM) | 8 (≈ 16.7 µM) | 4 (≈ 8.35 µM) | 4 (≈ 8.35 µM) |  |  |  |  |  |  | 
3 | CC[C@H]1OC(=O)[C@H](C)[C@@H](O[C@H]2C[C@@](C)(OC)[C@@H](O)[C@H](C)O2)[C@H](C)[C@@H](O[C@@H]2O[C@H](C)C[C@H](N(C)C)[C@H]2O)[C@](C)(O)C[C@@H](C)C(=O)[C@H](C)[C@@H](O)[C@]1(C)O [Erythromycin, erythromycin] | > 256 | > 256 | > 256 | > 256 |  |  |  |  |  |  | 
4 | CCC[C@@H]1C[C@@H](C(=O)N[C@@H]([C@H]2O[C@H](SC)[C@H](O)[C@@H](O)[C@H]2O)[C@@H](C)O)N(C)C1 [Lincomycin, lincomycin] | > 256 | > 256 | > 256 | > 256 |  |  |  |  |  |  | 
5 | CC(=O)NC[C@H]1CN(c2ccc(N3CCOCC3)c(F)c2)C(=O)O1 [Linezolid, linezolid] | > 256 | > 256 | > 256 | > 256 |  |  |  |  |  |  | bacterial CFU / bactericidal activity [5]: no remarkably bactericidal activity; bacterial CFU / bactericidal activity [6]: no remarkably bactericidal activity; bacterial loads inside C. elegans ([7]; 12 h and 24 h post infection): a great number of bacteria were detected; survival of infected C. elegans ([7]; monitored 7 days): died at day 3
6 | CC1COc2c(N3CCN(C)CC3)c(F)cc3c(=O)c(C(=O)O)cn1c23 (centres unmarked) [Ofloxacin, ofloxacin] | 0.5 (≈ 1.38 µM) | 1 (≈ 2.77 µM) | 0.5 (≈ 1.38 µM) | 0.5 (≈ 1.38 µM) |  |  |  |  |  |  | 
7 | CC(C)C[C@@H]1NC(=O)[C@@H](Cc2ccccc2)NC(=O)[C@H](CCN)NC(=O)[C@@H](N)CCNC(=O)[C@H]([C@@H](C)O)NC(=O)[C@H](CCN)NC(=O)[C@H](CCN)NC1=O [PBHP, polymyxin B heptapeptide] (H-[Dab][Dab][dF]L[Dab][Dab]T; lactam 1-C (inferred); N-terminus assumed) |  |  |  |  | over 256 µg/mL | 0.281 | 0.188 | 0.141 | 0.375 | 0.141 | 
8 | CC(C)C[C@@H]1NC(=O)[C@@H](Cc2ccccc2)NC(=O)[C@H](CCN)NC(=O)[C@@H](NC(=O)[C@H](CCN)NC(=O)[C@@H](N)[C@@H](C)O)CCNC(=O)[C@H]([C@@H](C)O)NC(=O)[C@H](CCN)NC(=O)[C@H](CCN)NC1=O [PBNP, polymyxin B nonapeptide] (H-T[Dab][Dab][Dab][dF]L[Dab][Dab]T; lactam 3-C (inferred); N-terminus assumed) |  |  |  |  | over 256 µg/mL | 0.188 | 0.156 | 0.156 | 0.250 | 0.250 | 
9 | CC(C)C[C@@H]1NC(=O)[C@@H](CC(C)C)NC(=O)[C@H](CCN)NC(=O)[C@@H](N)CCNC(=O)[C@H]([C@@H](C)O)NC(=O)[C@H](CCN)NC(=O)[C@H](CCN)NC1=O [PEHP, polymyxin E heptapeptide] (H-[Dab][Dab][dL]L[Dab][Dab]T; lactam 1-C (inferred); N-terminus assumed) |  |  |  |  | over 256 µg/mL | 0.258 | 0.250 | 0.141 | 0.266 | 0.156 | 
10 | CC(C)C[C@@H]1NC(=O)[C@@H](CC(C)C)NC(=O)[C@H](CCN)NC(=O)[C@@H](NC(=O)[C@H](CCN)NC(=O)[C@@H](N)[C@@H](C)O)CCNC(=O)[C@H]([C@@H](C)O)NC(=O)[C@H](CCN)NC(=O)[C@H](CCN)NC1=O [PENP, polymyxin E nonapeptide] (H-T[Dab][Dab][Dab][dL]L[Dab][Dab]T; lactam 3-C (inferred); N-terminus assumed) |  |  |  |  | over 256 µg/mL | 0.281 | 0.125 | 0.281 | 0.375 | 0.188 | 
11 | CC(C)C[C@@H]1NC(=O)[C@@H](CC(C)C)NC(=O)[C@H](CCN)NC(=O)[C@@H](NC(=O)[C@@H](N)CCN)CCNC(=O)[C@H]([C@@H](C)O)NC(=O)[C@H](CCN)NC(=O)[C@H](CCN)NC1=O [PEOP, polymyxin E octapeptide] (H-[Dab][Dab][Dab][dL]L[Dab][Dab]T; lactam 2-C (inferred); N-terminus assumed) |  |  |  |  | over 256 µg/mL | 0.313 | 0.141 | 0.188 | 0.313 | 0.125 | 
12 | CC1(C)S[C@@H]2[C@H](NC(=O)Cc3ccccc3)C(=O)N2[C@H]1C(=O)O [Penicillin G, penicillin G] | 8 (≈ 23.9 µM) | 4 (≈ 12 µM) | 8 (≈ 23.9 µM) | 4 (≈ 12 µM) |  |  |  |  |  |  | 
13 | CN(C)c1cc(NC(=O)CNC(C)(C)C)c(O)c2c1C[C@H]1C[C@H]3[C@H](N(C)C)C(O)=C(C(N)=O)C(=O)[C@@]3(O)C(O)=C1C2=O [Tigecycline, tigecycline] | 4 (≈ 6.83 µM) | 2 (≈ 3.41 µM) | 2 (≈ 3.41 µM) | 4 (≈ 6.83 µM) |  |  |  |  |  |  | 
14 | CN[C@H](CC(C)C)C(=O)N[C@H]1C(=O)N[C@@H](CC(N)=O)C(=O)N[C@H]2C(=O)N[C@H]3C(=O)N[C@H](C(=O)N[C@H](C(=O)O)c4cc(O)cc(O)c4-c4cc3ccc4O)[C@H](O)c3ccc(c(Cl)c3)Oc3cc2cc(c3O[C@@H]2O[C@H](CO)[C@@H](O)[C@H](O)[C@H]2O[C@H]2C[C@](C)(N)[C@H](O)[C@H](C)O2)Oc2ccc(cc2Cl)[C@H]1O [Vancomycin, vancomycin] |  |  |  |  |  |  |  |  |  |  | MIC ([1]; ATCC27853, 24 h): > 256 µg/mL; MIC ([3]; PA14, 24 h): > 256 µg/mL; MIC ([4]; PA2, 24 h): > 256 µg/mL; MIC ([2]; PAB41, 24 h): > 256 µg/mL
